Patent US20080319001A1, “Cancer Treatment Using Specific 3,6,9-Substituted Acridines” (priority 2005, published 2008)

How the values were obtained:
A549-derived xenografts = assay: A549 xenograft combination study; format: in vivo, mouse; details: single agent (AS1410 1 mg/kg or cisplatin 6 mg/kg), after approximately 60 days
Experimental: AS1410 was reconstituted in 0.9% saline B.P. to the required final concentration (0.331 and 0.0993) mg/ml of AS1410 succinate salt for intravenous administration).
The xenografts were prepared from the lung carcinoma A549 (ATCC Number CCL-185). Cells were grown in accordance with standard operating procedures and established methodology for this cell line to provide 5×10^6 cells per mouse.
A549-derived xenografts were established in 50 female nu/nu MF1 mice respectively by subcutaneous injection into the right flank of each mouse (5×10^6 cells in 100 μl phosphate buffered saline).
Animals were checked regularly until visible tumours appeared. Tumours were then measured in accordance with the relevant SOP regularly and tumour volume calculated using the formula: […]
Once the tumours were established, the mice were allocated into groups of 9 mice using a randomization procedure based on stratified xenograft volume.
Day 0 is defined as the day on which the average tumour volume is between 0.04 to 0.1 cm^3. Relative tumour volume on Day 0 is defined as 1.
Each mouse was observed and tumours measured until the xenografts tripled (3V0) in volume compared with volume on the day of treatment (V0). The elapsed period is the volume tripling time (VTT).
AS1410 was given by slow bolus intravenous injection. For AS1410 a dose volume 5 μl/g bodyweight was used. Control mice were untreated. […]

DU145 xenografts = assay: DU145 xenograft efficacy study; format: in vivo, mouse
Experimental: The mouse was selected because it is a rodent species and is internationally accepted as the species of choice for human xenograft studies. The nu/nu MF1 strain was selected.
A high dose level of 1 mg/kg given once daily for 10 days was selected for this study. Low and intermediate dose levels of 0.3 and 0.6 mg/kg/day were also selected to aid characterisation of the dose-response profile.
The test articles were reconstituted in 0.9% physiological saline B.P. to the required final concentrations; and where necessary, an organic solvent (e.g. DMSO or ethanol) was used to aid solubilisation of some materials.
Treated mice received a bolus intravenous injection of the test formulation once daily for two weeks (week-days only). A dose-volume of […] bodyweight was be used. Control mice were untreated.
A total of 175 female MF1 mice were obtained from the Biological Research Facility, SGHMS, London. Animals were in a weight range of 26-30 g (6 to 8 weeks of age). Mice were individually identified using a subcutaneously implanted microchip.
The xenografts were prepared from the DU145 cell line (ATCC HTB-81). Cells were grown in accordance with established methodology for this cell line to provide 5×10^6 cells per mouse.
Xenografts were established in the MF1 mice by subcutaneous injection into the right flank of each mouse (5×10^6 cells in […] phosphate buffered saline).
Animals were checked regularly until visible tumours appeared. Tumours were then measured in accordance with the relevant SOP three times per week and tumour volume calculated using the formula: […]
Measurements commenced approximately one week before the day of treatment (Day 0) when the xenograft reached an approximate volume of 0.05 cm^3 (e.g. dimensions of approximately 5×5×4 mm).
Once the tumours were established, mice were allocated into groups of 5 mice using a randomization procedure based on stratified xenograft volume.
Day 0 is defined as the day on which the average tumour volume is between 0.12 to 0.16 cm^3. Relative tumour volume on Day 0 is defined as 1.
Each mouse was observed and tumours measured until the xenografts tripled in volume (3Vo) compared with volume on the day of treatment (Vo). The elapsed period was the volume tripling time (VTT).

tumour cell line = details: Incles et al, 2004; cited from earlier work
[1] = Metabolic stability, cytosol; format: in vitro ADME
human telomerase = details: Read et al. 2001; Harrison et al. 2003; Schultes et al. 2004; cited from earlier work

SMILES: O=C(CCN1CCCC1)Nc1ccc2c(NCc3ccc(F)c(F)c3)c3ccc(NC(=O)CCN4CCCC4)cc3nc2c1 [BSG17, N-(9-(3,4-Difluoro-benzylamino)-6-(3-pyrolidin-1-yl-propionamide)-acridin-3-yl)-3-pyrrolidin-1-yl-propionamide]
- relative tumour volume (A549-derived xenografts): about 5
- T-C value (DU145 xenografts; 0.3 mg/kg/day iv): 7 days
- T-C value (DU145 xenografts; 0.6 mg/kg/day iv): 11.6 days
- T-C value (DU145 xenografts; 1 mg/kg/day iv): 11 days
- xenograft response (DU145 xenografts; 0.3, 0.6 and 1.0 mg/kg/day iv, compared with BSG01): clear dose response and effects at all three dose levels

SMILES: CN(C)c1ccc(Nc2c3ccc(NC(=O)CCN4CCCC4)cc3nc3cc(NC(=O)CCN4CCCC4)ccc23)cc1 [BSG01]
- end-to-end fusions in chromosomes (tumour cell line): cause end-to-end fusions in chromosomes
- Cytosol (t = 30) ([1]; t = 30): 3.5
- Cytosol (t = 60) ([1]; t = 60): 6.3
- in vitro inhibitory activity against human telomerase (human telomerase): potent in vitro inhibitory activity
